Measurements: patent publication US10035819B2, “PPAR agonists and methods of use thereof” (The Salk Institute for Biological Studies, priority 2014, dated 2018)
Converted amounts (≈) assume the structure as drawn.

Assays:
[1] = tested on: C57BL6J mice, freeze burn injury to the TA muscle; experiment: Acute pharmacological activation of PPARδ with oral GW501516, freeze burn injury to the TA muscle; format: in vivo
Method: A stainless steel 1 g weight (Mettler-Toledo) equilibrated to the temperature of dry ice was placed directly on the exposed TA for 10 seconds. Following the thermal injury, incision was closed using VetBond (3M). All injury procedures were performed on the left leg, and the right leg was used as control.
Sterile 1% w/v Evans Blue dye in PBS was intraperitoneally injected at 1% volume relative to the body mass of an animal. 7 hours after the injection, injured TA muscles were harvested and snap-frozen by isopentane quenching in liquid nitrogen. Frozen sections were cut in 10 μm thickness, fixed in ice-cold acetone, dipped in xylene and mounted with DPX. Proportion of the stained area over the total area was measured using ImageJ software.
50 mg/kg body weight of BrdU (Sigma) was injected intraperitoneally as solution of 10 mg/mL BrdU in saline. TA muscles were harvested at 7 days after injury and processed for paraffin sections as described above. BrdU incorporation was visualized using the BrdU Labeling and Detection Kit I (Roche) and BrdU+ nuclei were counted and represented as a proportion of total nuclei in a field.
Whole or partial tissues were homogenized by Polytron probe homogenizer in Trizol reagent (Invitrogen). Total RNA was extracted from the homogenates according to the manufacturer's protocol. 1 μg of DNase-treated total RNA was reverse transcribed using Superscript II Reverse Transcriptase (Invitrogen) according to the manufacturer's instructions. cDNAs were diluted 1/40 with ddH2O and used as templates in RT-QPCR reactions with SYBRGreenER qPCR SuperMix detection system (Invitrogen). Samples were prepared in technical triplicates and relative mRNA levels were calculated by using the standard curve methodology and normalized against GAPDH mRNA levels in the same samples.

[2] = format: in vitro ADME
[3] = Solubility (kinetic, thermodynamic); format: physicochemical
FGF1a promoter = experiment: Luciferase reporter assay of the FGF1a promoter co-transfected with PPARδ; format: cell-based; settings: with ligand
Excerpt: Increased vasculature is one of the hallmarks of oxidative myofibers, which facilitates introduction of immune cells and also supports increased number of satellite cells.

[4] = Pharmacokinetics in male Wistar rats (i.v. and p.o.); format: in vivo
Method: In this example, the PK profile of several PPARδ agonists disclosed herein in male CD-1 mice or Wistar rats was determined. Similar methods can be used to analyze other compounds provided herein. […]
(§1) The concentration of the compound in plasma was determined, as illustrated in FIGS. 9A-9E.

[5] = Pharmacokinetics in male CD-1 mice (i.v. and p.o.); format: in vivo
Method: The oral bioavailability and serum half lives of PPARδ ligands were compared in mice. The pharmacokinetics of PPARδ ligands delivered orally (10 mg/kg p.o.) and intravenously (3 mg·kg i.v.) were determined by mass spectrometry.
In this example, the PK profile of several PPARδ agonists disclosed herein in male CD-1 mice or Wistar rats was determined. Similar methods can be used to analyze other compounds provided herein.
(quantity sufficient ie made up to a final volume of 100% with water). All compounds were separately administered to CD-1 mice at 3 mg/kg iv or 10 mg/kg po.
as §1

[6] = rat, iv, male Wistar rats, 3 mg/Kg i.v., plasma
[7] = rat, po, male Wistar rats, 10 mg/Kg p.o., plasma
[8] = male, mouse, iv, CD-1 mice, 3 mg/Kg i.v., plasma
[9] = male, mouse, po, CD-1 mice, 10 mg/Kg p.o., plasma

## Cc1cc(SCc2sc(-c3ccc(C(F)(F)F)cc3)nc2C)ccc1OCC(=O)O [GW501516]
[1]; 5 mg/kg orally, 4 days prior to and 5 days after freeze burn injury, 5 days after injury (vehicle 7.6%)
  Evans Blue dye uptake, stained proportion of muscle cross sectional area (CSA): 4.9%
[1]; 12 hours after injury, with and without ligand
  initial inflammatory responses: similar
[1]; 3 days post injury, TA muscle
  TNFα and macrophage marker F4/80 expression by QPCR: significant reduction
[1]; 5 days after the injury, vs vehicle
  reduction in damaged muscle fibers: 34.7%
[1]; 9 day treatment
  Notch1 and Hes1 expression by QPCR: increases
[1]; 9 day treatment, 5 mg/kg orally
  PPARδ target genes (PDK4, CPT1b, catalase) in the TA muscle by QPCR: Up-regulation
[1]; 9 days or 4 weeks of ligand treatment
  number of quiescent satellite cells: not significantly affected
[1]; BrdU injection at 48 hours after the injury
  proliferative cell number (BrdU): marked increase
[2]
  % Parent remained at 15 min, MLM: 93/76%
  % Parent remained at 60 min, MLM: 93/76%
[3]; kinetic from dmso stock
  solubility kinetic: 195 µM (≈ 88.4 µg/mL)
[3]; thermodynamic from solid
  solubility thermodynamic: 246 µM (≈ 112 µg/mL)
FGF1a promoter
  FGF1a promoter luciferase reporter, PPRE-dependent: activation
[4]; male Wistar rats, 3 mg/Kg i.v., plasma
  Kel: 0.09 h⁻¹
[4]; male Wistar rats, 10 mg/Kg p.o. vs 3 mg/Kg i.v.
  F: ~100%
[4]; male, Wistar, rat, plasma, iv, 3 mg/kg
  clearance: 0.306 L/h/kg
[4]; male, Wistar, rat, plasma, iv, 3 mg/kg, male Wistar rats, 3 mg/Kg i.v., plasma, read-out: Vss
  Vd: 1.99 L/kg
[4]; male, Wistar, rat, plasma, iv, 3 mg/kg, male Wistar rats, 3 mg/Kg i.v., plasma, read-out: Vz
  Vd: 3.58 L/kg
[4]; male, Wistar, rat, plasma, iv, 3 mg/kg, read-out: Beta T1/2 (converted)
  half-life: 8.07 h
[4]; male, Wistar, rat, plasma, po, 10 mg/kg, read-out: T1/2 (converted)
  half-life: 6.21 h
[4]; [6]
  AUC(0-inf): 9.96 µg·h/mL
  C0: 5.28 µg/mL
  MRT: 4.3 h
[4]; [7]
  AUC(0-inf): 35.1 µg·h/mL
  Cmax: 6.92 µg/mL
  Tmax: 2 h
[5]; CD-1 mice, 3 mg/Kg i.v., plasma
  Kel: 0.11 h⁻¹
[5]; CD-1 mice, 10 mg/Kg p.o. vs 3 mg/Kg i.v.
  F: 82.1%
[5]; male, CD-1, mouse, plasma, iv, 3 mg/kg
  clearance: 0.265 L/h/kg
[5]; male, CD-1, mouse, plasma, iv, 3 mg/kg, CD-1 mice, 3 mg/Kg i.v., plasma, read-out: Vss
  Vd: 1.71 L/kg
[5]; male, CD-1, mouse, plasma, iv, 3 mg/kg, CD-1 mice, 3 mg/Kg i.v., plasma, read-out: Vz
  Vd: 2.46 L/kg
[5]; male, CD-1, mouse, plasma, iv, 3 mg/kg, read-out: Beta T1/2 (converted)
  half-life: 6.44 h
[5]; male, CD-1, mouse, plasma, po, 10 mg/kg, read-out: T1/2 (converted)
  half-life: 5.98 h
[5]; [8]
  AUC(0-inf): 11.3 µg·h/mL
  C0: 5.56 µg/mL
  MRT: 4.96 h
[5]; [9]
  AUC(0-inf): 31 µg·h/mL
  Cmax: 3.29 µg/mL
  Tmax: 2 h
